Results on nine molecules are retold here after patent publication US9402819B2, “Anti-HIV compound and preparation method and use thereof” (Sichuan University, priority 2012, dated 2016).

≈ marks a conversion by molar mass, not a printed value.

A short description of series [1]: Cytotoxicity (CC50) in H9 cells. In kind it is cell-based, human. To be noted: human, read-out: CC50.
Protocol: (§1) The anti-HIV activity was determined by the “Guiding Principles of Anti HIV Drug Unclinical Pharmacodynamics” of SFDA which is tested by technology standard assay according to International Universal Standards and Methods. Where in CC50, EC50 were measured twice and took the average.
In the next series the test system is HIV-2 ROD. Put plainly: Activity for HIV-2 ROD. To be noted: for TI: HIV-2 ROD; for EC50: Human immunodeficiency virus 2.
For series [2], the system named is HIV-1IIIB. In words: Anti-HIV activity in H9 cells. The note with it: H9 cells; for TI: CC50/EC50; for EC50: Human immunodeficiency virus 1, HIV-1IIIB, read-out: EC50. In kind it is cell-based.
Protocol: as §1
Series [3] can be described thus: Cytotoxicity (CC50) in C8166 cells. In kind it is cell-based. The note with it: human.
Protocol: as §1
Series [4] in a line: Activity for HIV-2 CBL-20.
Another series has as its system HIV-2 CBL-20. In words: Activity for HIV-2 CBL-20. To be noted: for TI: HIV-2 CBL-20; for EC50: Human immunodeficiency virus 2.
Series [5] relates to HIV-1IIIB. In words: Anti-HIV activity in C8166 cells. In kind it is cell-based. The note with it: C8166 cells; for TI: CC50/EC50; for EC50: Human immunodeficiency virus 1, HIV-1IIIB, read-out: EC50.
Protocol: as §1
The conditions of series [6]: for safety at high dose: high dose (10 g/kg); for acute toxicity test finding: in vivo.
Another series has as its system HIVKM018. Put plainly: microbe, parasite or virus in culture. To be noted: Human immunodeficiency virus 1.
The next series concerns HIV-1A17. Put plainly: microbe, parasite or virus in culture. The note with it: Human immunodeficiency virus 1.
Another series deals with HIV-1TC-1. In words: microbe, parasite or virus in culture. To be noted: Human immunodeficiency virus 1.
The subject of a further series is H9 cells. Put plainly: Cytotoxicity (CC50) in H9 cells. It is filed as cell-based, human.
The nature of series [7]: Solubility in aqueous solution. In kind it is physicochemical. The source says: Solubility is an important parameter of druggability. […] They are with good solubility and can be formulated into an oral formulation. The prodrugs can be hydrolyzed into 46 which is with good fat-solubility and TI as well as distribution.
Series [8] in a line: Stability (degradation) in solutions of different pH. It is filed as physicochemical. Here is the method: For example, compound 67 was tested in solutions with PH=4.004, 6.864 and 9.182, and its degradation rate was […]. […] As to the Mechanism of action of the compounds, the possible binding mode between 46 and vif was predicted by docking There are five possible hydrogen bonds between them: two hydrogen bonds between the nitro group and Arg79 and Lys178, two hydrogen bonds between the oxygen atom of methoxyl group with His141 and Arg97, one hydrogen bond between the nitrogen atom of pyridine with Gly103. (The binding mode can be seen in FIG. 4)

[9] abbreviates: simulated gastric fluid, in aqueous solution (pH=2).

Usually EC50 stands for the concentration needed to bring the measured effect to its halfway point. `COc1ccccc1NC(=O)c1c(N)cccc1Sc1ccc([N+](=O)[O-])cc1` [Compound 25, 2-amino-N-(2-methoxyphenyl)-6-(4-nitrophenylthi-o)benzamide]: the CC50 worked out at 153 µg/mL (≈ 387 µM) in [1] (H9 cells), 185 µg/mL (≈ 467 µM) in the series “Activity for HIV-2 ROD”, 65.4 µg/mL (≈ 165 µM) in [3] and 164 µg/mL (≈ 414 µM) in [4]. Besides, the TI in the series on HIV-2 ROD was 312.90; in the series with HIV-1IIIB [2], 206.68; with HIV-2 CBL-20, 199.72; with HIV-1IIIB [5], 310.02. Also, the EC50 in the series with HIV-2 ROD worked out at 0.59 µg/mL (≈ 1.49 µM); in the series on HIV-1IIIB [2], 0.74 µg/mL (≈ 1.87 µM); with HIV-2 CBL-20 it was 0.82 µg/mL (≈ 2.07 µM); with HIV-1IIIB [5], 0.21 µg/mL (≈ 0.531 µM).

As for `COc1ccccc1NC(=O)c1c(N)cccc1S(=O)(=O)c1ccc([N+](=O)[O-])cc1` [Compound 46, 2-amino-N-(2-methoxyphenyl)-6-((4-nitroph-enyl)sulfonyl)benzamide], the “safety at high dose” value in series [6] is “very safe”. In [6], the “acute toxicity test finding” value is recorded as “no abnormal phenomenon occurred”. The CC50 was greater than 200 µg/mL in [1], greater than 200 µg/mL in the series “Activity for HIV-2 ROD”, 141 µg/mL (≈ 329 µM) in series [3] and greater than 200 µg/mL in [4]. Further, the TI with HIV-2 ROD worked out at 487.8; in the series with HIV-2 CBL-20, 444.44. Also, the EC50 in the series with HIV-2 ROD turned out to be 0.41 µg/mL (≈ 0.959 µM); in the series with HIV-1IIIB [2] it was 0.66 µg/mL (≈ 1.54 µM); in the series with HIVKM018, 6.23 µg/mL (≈ 14.6 µM); with HIV-2 CBL-20 it was 0.45 µg/mL (≈ 1.05 µM); in the series on HIV-1A17, 18.7 µg/mL (≈ 43.8 µM); in the series on HIV-1IIIB [5], 0.096 µg/mL (≈ 0.225 µM). Moreover, in the series on HIV-1TC-1, it took 0.11 µg/mL (≈ 0.257 µM) to reach a half-maximal effect (EC50).

`COc1ccccc1NC(=O)c1c(N)cccc1Oc1ccc([N+](=O)[O-])cc1` [Compound 48, 2-amino-N-(2-methoxyphenyl)-6-(4-nitrop-henoxy)benzamide]: in the series on H9 cells, the CC50 was 76.60 µg/mL (≈ 202 µM). The molecule further yielded a TI in the series on HIV-1IIIB [2] of 2.14.

What is called solubility is the concentration that dissolves in the medium under given conditions. The low end stands for little dissolved substance, the high end for much dissolved substance. With `COc1ccccc1NC(=O)c1c(NC(=O)CN)cccc1Sc1ccc([N+](=O)[O-])cc1.Cl` [Compound 66, 2-(2-aminoacetamido)-N-(2-methoxyphenyl)-6-(4-nitrophenylthio)benzamide hydrochloride], the CC50 in [1] (H9 cells) stood at 72.3 µg/mL; in series [3] it was 78.3 µg/mL. For the same molecule, the TI with HIV-1IIIB [2] amounted to 451.69; in the series with HIV-1IIIB [5], 97.01. Besides, the values for the EC50 in the series on HIV-1IIIB [2] and in the series on HIV-1IIIB [5] were 0.16 µg/mL and 0.81 µg/mL, respectively. In series [7] (setting [9]), this molecule showed a solubility of 1290 µg/mL.

For the molecule `COc1ccccc1NC(=O)c1c(NC(=O)CN)cccc1S(=O)(=O)c1ccc([N+](=O)[O-])cc1.Cl` [Compound 67, 2-(2-aminoacetamido)-N-(2-methoxyphenyl)-6-((4-nitrophenyl)sulfonyl)benzamide hydrochloride hydrochloride], the “safety at high dose” value in series [6] is reported as “very safe”. Further, the “acute toxicity test finding” value in series [6] is recorded as “no abnormal phenomenon occurred”. For the same molecule, the CC50 came to 94.9 µg/mL in [1] (H9 cells), 126 µg/mL in the series “Activity for HIV-2 ROD”, 165 µg/mL in series [3] and 106 µg/mL in [4]. Also, the EC50 in the series on HIV-2 ROD worked out at 0.78 µg/mL; with HIV-2 CBL-20 it was 1.21 µg/mL. Besides, the degradation rate in [8] (solution PH=4.004) is given as 0.2767; in series [8] (solution PH=6.864) it was 0.4956; in series [8] (solution PH=9.182) it was 9.182. This molecule also came in with a solubility in [7] (aqueous buffer, in water with pH=7) of 1730 µg/mL.

Consider `COc1ccccc1NC(=O)c1c(NC(=O)C(N)CCCCN)cccc1Sc1ccc([N+](=O)[O-])cc1.Cl` (stereo not drawn) [Compound 68, 2-(2,6-diaminohexanamido)-N-(2-methoxyphenyl)-6-((4-nitrophenyl)thio)benzamide hydrochloride], for which the figures for the CC50 in [1] (H9 cells) and in [3] were 90.1 µg/mL and 116 µg/mL, respectively. Further, the solubility in series [7] (setting [9]) was 2850 µg/mL.

`COc1ccccc1NC(=O)c1c(NCCN)cccc1S(=O)(=O)c1ccc([N+](=O)[O-])cc1` [Compound 79, 2-((2-aminoethyl)amino)-N-(2-methoxyphenyl)-6-((4-nitrophenyl)sulfonyl)benzamide]: the values for the CC50 in [1] (H9 cells) and in series [3] were 99.5 µg/mL (≈ 211 µM) and 90.9 µg/mL (≈ 193 µM), respectively. For the same molecule, the TI in the series on HIV-1IIIB [2] came out at 0.99; in the series with HIV-1IIIB [5] it was 0.97. Moreover, the EC50 in the series with HIV-1IIIB [2] is 101 µg/mL (≈ 214 µM); with HIV-1IIIB [5] it was 93.5 µg/mL (≈ 199 µM).

Regarding `COc1ccccc1NC(=O)c1c(NCCO)cccc1Sc1ccc([N+](=O)[O-])cc1` [Compound 80, 2-((2-hydroxyethyl)amino)-N-(2-methoxyphenyl)-6-((4-nitrophenyl)thio)benzamide], the CC50 in series [1] (H9 cells) stood at 116 µg/mL (≈ 265 µM); in [3], 93.5 µg/mL (≈ 213 µM). For the same molecule, the figures for the TI in the series with HIV-1IIIB [2] and in the series with HIV-1IIIB [5] were 6.08 and 4.81, respectively. Further, the EC50 in the series with HIV-1IIIB [2] is 19.1 µg/mL (≈ 43.6 µM); in the series with HIV-1IIIB [5], 19.4 µg/mL (≈ 44.2 µM).

Consider `COc1ccccc1NC(=O)c1c(NCCO)cccc1S(=O)(=O)c1ccc([N+](=O)[O-])cc1` [Compound 81, 2-((2-hydroxyethyl)amino)-N-(2-methoxyphenyl)-6-((4-nitrophenyl)sulfonyl)benzamide], for which the CC50 stood at 72.7 µg/mL (≈ 154 µM) in series [1] (H9 cells) and 102 µg/mL (≈ 217 µM) in series [3]. Besides, the values for the TI with HIV-1IIIB [2] and with HIV-1IIIB [5] were 0.71 and 1.15, respectively. Besides, the EC50 with HIV-1IIIB [2] stood at 102 µg/mL (≈ 216 µM); with HIV-1IIIB [5], 89.1 µg/mL (≈ 189 µM).
